Test results published in ChEMBL document CHEMBL3763094, “Synthesis of 2-arylfuro[3,2-b]pyridines: Effect of the C2-aryl group on melatoninergic activity” (Eur J Med Chem, 2016).
Calls of active or inactive are those of the source. The rule behind the calls is not given here.

How the values were obtained:
[1] = target: T1, Melatonin receptor type 1A (Homo sapiens, UniProt P48039); assay: Displacement of [125I]2-Iodomelatonin from human MT1 receptor expressed in HEK293 cells after 120 mins by radioligand competition assay; type: cell-based
T1 sequence (P48039 whole entry): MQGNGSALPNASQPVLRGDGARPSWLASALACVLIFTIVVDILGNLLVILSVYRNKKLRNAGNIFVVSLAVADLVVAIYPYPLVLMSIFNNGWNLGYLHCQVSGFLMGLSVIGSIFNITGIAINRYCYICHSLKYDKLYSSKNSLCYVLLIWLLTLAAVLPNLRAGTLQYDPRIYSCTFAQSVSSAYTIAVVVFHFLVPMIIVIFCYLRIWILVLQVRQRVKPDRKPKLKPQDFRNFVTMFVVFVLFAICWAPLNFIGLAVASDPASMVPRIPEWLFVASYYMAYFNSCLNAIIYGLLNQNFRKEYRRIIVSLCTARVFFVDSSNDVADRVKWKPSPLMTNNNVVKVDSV

[2] = target: T1, Melatonin receptor type 1A; assay: Agonist activity at MT1 receptor (unknown origin) expressed in CHO cells incubated for 1 hr by [35S]GTPgammaS binding assay; type: functional, cell-based
[3] = target: T2, Melatonin receptor type 1B (Homo sapiens) (UniProt P49286); assay: Antagonist activity at MT2 receptor (unknown origin) expressed in CHO cells assessed as inhibition of melatonin-induced response for 30 mins by [35S]GTPgammaS binding assay; type: functional, cell-based
T2 sequence (whole entry): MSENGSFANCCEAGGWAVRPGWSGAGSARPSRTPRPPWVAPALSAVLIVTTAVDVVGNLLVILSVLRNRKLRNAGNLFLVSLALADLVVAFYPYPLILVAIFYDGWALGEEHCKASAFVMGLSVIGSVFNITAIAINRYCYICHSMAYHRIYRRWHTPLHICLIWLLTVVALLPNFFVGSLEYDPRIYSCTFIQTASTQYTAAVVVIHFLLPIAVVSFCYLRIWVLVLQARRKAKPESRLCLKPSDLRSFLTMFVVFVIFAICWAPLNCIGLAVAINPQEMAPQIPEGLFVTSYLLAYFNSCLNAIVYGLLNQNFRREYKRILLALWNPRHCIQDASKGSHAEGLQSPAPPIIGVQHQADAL

Homo sapiens = organism: Homo sapiens; assay: Selectivity ratio of Ki for human MT1 receptor to Ki for human MT2 receptor
[4] = target: T3, Melatonin receptor type 1B (Homo sapiens, UniProt P49286); assay: Displacement of [125I]2-Iodomelatonin from human MT2 receptor expressed in HEK293 cells after 120 mins by radioligand competition assay; type: cell-based
T3 sequence (P49286 whole entry): T2 sequence (whole entry)

[5] = target: T1, Melatonin receptor type 1A; assay: Antagonist activity at MT1 receptor (unknown origin) expressed in CHO cells assessed as inhibition of melatonin-induced response for 30 mins by [35S]GTPgammaS binding assay; type: functional, cell-based
[6] = target: T2, Melatonin receptor type 1B (Homo sapiens); assay: Partial agonist activity at MT2 receptor (unknown origin) expressed in CHO cells incubated for 1 hr by [35S]GTPgammaS binding assay; type: functional, cell-based
[7] = target: T1, Melatonin receptor type 1A; assay: Partial agonist activity at MT1 receptor (unknown origin) expressed in CHO cells incubated for 1 hr by [35S]GTPgammaS binding assay; type: functional, cell-based
[8] = target: T2, Melatonin receptor type 1B (Homo sapiens); assay: Agonist activity at MT2 receptor (unknown origin) expressed in CHO cells incubated for 1 hr by [35S]GTPgammaS binding assay; type: functional, cell-based

Row | SMILES | Ki [1] [nM] | Activity [2] | Activity [3] | Ratio Ki (Homo sapiens) | Ki [4] [nM] | Activity [5] | Activity [6] | Activity [7] | Activity [8]
1 | COc1ccc2oc(-c3ccc4ccccc4c3)c(CCNC(C)=O)c2n1 | 2.2 | Active | Active | 22.2 | 0.09 |  |  |  | 
2 | COc1ccc2oc(-c3c(C)cccc3C)c(CCNC(C)=O)c2n1 | 120 |  |  | 13.3 | 9 | Active | Active |  | 
3 | COc1ccc2oc(-c3cc4ccccc4c4ccccc34)c(CCNC(C)=O)c2n1 | 68 |  | Active | 13.6 | 5 |  |  | Active | 
4 | COc1ccc2oc(-c3c4ccccc4cc4ccccc34)c(CCNC(C)=O)c2n1 | 31 |  | Active | 6.2 | 5 |  |  | Active | 
5 | COc1cc2c(CCNC(C)=O)c[nH]c2cn1 | 9.5 |  |  | 0.3 | 35 |  |  |  | 
6 | COc1ccc2[nH]cc(CCNC(C)=O)c2n1 |  |  |  | 0.7 |  |  |  |  | 
7 | CCC(=O)NCCCc1cc(OC)ccc1OCc1cccc(OC)c1 |  |  |  | 790 |  |  |  |  | 
8 | COc1cc2c(CCNC(C)=O)coc2cn1 | 73 |  |  | 1.2 | 59 |  |  |  | 
9 | COc1ccc2oc(-c3cccc4ccccc34)c(CCNC(C)=O)c2n1 | 198 |  | Active | 152 | 1.3 | Active |  |  | 

Further lines, results first:

Row | Ki [1] [nM] | Activity [2] | Activity [3] | Ratio Ki (Homo sapiens) | Ki [4] [nM] | Activity [5] | Activity [6] | Activity [7] | Activity [8] | SMILES
10 | 0.2 | Active |  | 6.7 | 0.03 |  |  |  | Active | COc1ccc2oc(-c3ccc(F)cc3)c(CCNC(C)=O)c2n1
11 | 0.04 | Active |  | 0.3 | 0.14 |  |  |  | Active | COc1ccc2oc(-c3ccccc3)c(CCNC(C)=O)c2n1
12 | 1.6 | Active |  | 1.5 | 1.2 |  |  |  | Active | COc1ccc2occ(CCNC(C)=O)c2n1
13 | 0.2 | Active |  | 2.5 | 0.08 |  |  |  | Active | COc1ccc2oc(I)c(CCNC(C)=O)c2n1
